Reference: ChEMBL document CHEMBL4665751, “Discovery of Clinical Candidate (5-(3-(4-Chlorophenoxy)prop-1-yn-1-yl)-3-hydroxypicolinoyl)glycine, an Orally Bioavailable Prolyl Hydroxylase Inhibitor for the Treatment of Anemia” (J Med Chem, 2020)
Active and inactive are the calls of the source. The rule behind the calls is not given here.

Key:
[1] = molecular target: Egl nine homolog 1 (Homo sapiens, UniProt Q9GZT9); assay: Inhibition of FITC-HIF1alpha (556 to 574 residues) binding to PHD2 (181 to 426 residues) (unknown origin) by fluorescence polarization assay
Egl nine homolog 1, sequence (Q9GZT9 whole entry, the tested form may be a part): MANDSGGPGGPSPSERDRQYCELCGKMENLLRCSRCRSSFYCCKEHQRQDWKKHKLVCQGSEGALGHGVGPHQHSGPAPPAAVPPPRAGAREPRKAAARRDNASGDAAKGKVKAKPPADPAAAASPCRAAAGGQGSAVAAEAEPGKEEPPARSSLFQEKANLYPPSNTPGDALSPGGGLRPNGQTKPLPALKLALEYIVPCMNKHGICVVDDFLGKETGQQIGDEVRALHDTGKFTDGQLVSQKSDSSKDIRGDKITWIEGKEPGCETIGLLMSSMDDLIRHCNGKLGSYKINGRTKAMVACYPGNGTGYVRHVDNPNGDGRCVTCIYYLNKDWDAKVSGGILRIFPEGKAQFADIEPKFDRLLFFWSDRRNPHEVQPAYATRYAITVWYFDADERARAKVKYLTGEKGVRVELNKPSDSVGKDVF

[2] = system: Mus musculus; assay: In vivo inhibition of PHD2 in po dosed C57BL/6 mouse assessed as upregulation of EPO plasma level administered 4 times for 3 days by ELISA; assay type: functional, organism-based; settings: dose mg/kg 5-50, time 3.0 day
[3] = system: Mus musculus; assay: Antianemic activity in cisplatin-induced C57BL/6 mouse anemia model assessed as improvement in anemia at 10 mg/kg, po administered every other day for 1 month; assay type: functional; settings: time 1 months, 730 h
[4] = system: Mus musculus; assay: Induction of erythropoiesis in po dosed C57BL/6 mouse assessed as increase in red blood cell count administered thrice for 3 days measured 4 hrs post last dose; assay type: functional, organism-based; settings: dose mg/kg 5-50, time 72.0 hrs
[5] = system: Mus musculus; assay: Antianemic activity in cisplatin-induced C57BL/6 mouse anemia model assessed as increase in haemoglobin level administered orally every other day for 1 month; assay type: functional, organism-based; settings: dose mg/kg 10-25, time 1.0 months
[6] = system: Mus musculus; assay: Antianemic activity in cisplatin-induced C57BL/6 mouse anemia model assessed as improvement in anemia at 25 mg/kg, po administered every other day for 1 month; assay type: functional; settings: time 1 months, 730 h
[7] = system: Mus musculus; assay: In vivo inhibition of PHD2 in C57BL/6 mouse assessed as upregulation of EPO plasma level by measuring EPO level at 15 mg/kg, po measured after 4 hrs by ELISA; assay type: functional, organism-based
[8] = In vivo inhibition of PHD2 in C57BL/6 mouse assessed as increase in EPO plasma level by measuring EPO level at 15 mg/kg, iv measured after 4 hrs by ELISA; assay type: functional

Row | SMILES | IC50 [1] [nM] | other results
1 | CN(CC#Cc1cnc(C(=O)NCC(=O)O)c(O)c1)c1ccccc1 | 454 | 
2 | O=C(O)CNC(=O)c1ncc(C#CCOCc2ccc(Cl)cc2)cc1O | 84.3 | 
3 | Cc1nc(C(=O)NCC(=O)O)c(O)c2ccc(Oc3ccccc3)cc12 [ROXADUSTAT] |  | inhibition [2]: Dose-dependent effect; Activity [3]: 86.4%; Activity [4]: Dose-dependent effect; Activity [5]: Active; Activity [6]: 115.2%; inhibition [7]: Active
4 | COc1ccccc1OCC#Cc1cnc(C(=O)NCC(=O)O)c(O)c1 | 218 | 
5 | O=C(O)CNC(=O)c1ncc(C#CCOc2ccccc2C(F)(F)F)cc1O | 1070 | 
6 | O=C(O)CNC(=O)c1ncc(C#CCOc2ccc(-c3ccccc3)cc2)cc1O | 825 | 
7 | COc1cccc(OCC#Cc2cnc(C(=O)NCC(=O)O)c(O)c2)c1 | 428 | 
8 | COc1ccc(OCC#Cc2cnc(C(=O)NCC(=O)O)c(O)c2)cc1 |  | Activity [8]: >1000 pg/mL
9 | O=C(O)CNC(=O)c1ncc(C#CCOc2cccc(C(F)(F)F)c2)cc1O | 877 | 
10 | O=C(O)CNC(=O)c1ncc(C#CCOc2cccc3ccccc23)cc1O | 346 | 
11 | O=C(O)CNC(=O)c1ncc(C#CCOc2cccc(F)c2)cc1O | 256 | 
12 | O=C(O)CNC(=O)c1ncc(C#CCOCCc2ccc(Cl)cc2)cc1O | 408 | 
13 | O=C(O)CNC(=O)c1ncc(C#CCOc2cccc(Cl)c2)cc1O | 587 | 
14 | O=C(O)CNC(=O)c1ncc(C#CCOc2ccccc2Cl)cc1O |  | Activity [8]: >1000 pg/mL
15 | N#Cc1ccc(OCC#Cc2cnc(C(=O)NCC(=O)O)c(O)c2)cc1 | 263 | 
16 | Cc1cccc(OCC#Cc2cnc(C(=O)NCC(=O)O)c(O)c2)c1 | 125 | Activity [8]: >1000 pg/mL
